The values that follow come from patent US20080139648A1, “Product Containing Prostaglandin Having Fluorine Atom In Its Molecule” (Santen Pharmaceutical Co., Ltd., priority 2004, published 2008).

The data set in a line: storage stability test of eye drop in resin container (content by HPLC). It is filed as physicochemical. From the text: The content of the present prostaglandin derivative refers to the ratio (%) of the concentration of the present prostaglandin derivative existing in the aqueous liquid preparation after a predetermined period of time to the original concentration of the present prostaglandin derivative existing in the aqueous liquid preparation when the prostaglandin-containing product is produced throughout the claims and the specification. For example, in the case where the present prostaglandin derivative is dissolved in water, it refers to the ratio (%) of the concentration of the present prostaglandin derivative existing in the aqueous solution after a predetermined period of time to the concentration of the present prostaglandin derivative dissolved in water.
A 5-ml eye drop resin container was obtained by injection blow molding of a propylene/ethylene random copolymer (containing an ethylene component in an amount of 3%).
The resin container obtained in the section of “2. Production of Resin Container” was subjected to a sterilization treatment with ethylene oxide gas (sterilization with ethylene oxide at a concentration of 20% (v/v), at a temperature of 40° C. and a relative humidity of 50% for 3 hours), and then, in the container, Eye drop 1 obtained in the section of “1. Preparation of Eye Drop” was charged. […] The concentration of the present compound in the container was measured by high performance liquid chromatography before the initiation of storage and after 30-day storage. The content of the present compound was calculated taking the concentration of the present compound at the time of initiation of storage as a standard (100%). Incidentally, each value in Table 1 is expressed as an average of three cases.
Except that the sterilization treatment with ethylene oxide gas was altered into a sterilization treatment with gamma rays (32 kGy), the content of the present compound was calculated in the same manner as in Example 1.
Except that the sterilization treatment with ethylene oxide gas was altered into a sterilization treatment with electron rays (23 kGy), the content of the present compound was calculated in the same manner as in Example 1.
Except that a container with no sterilization treatment was used as the container, the content of the present compound was calculated in the same manner as in Example 1.
Except that Eye drop 1 was altered into Eye drop 2, the content of latanoprost was calculated in the same manner as in Example 1.
Except that Eye drop 1 was altered into Eye drop 2 and the sterilization treatment with ethylene oxide gas was altered into a sterilization treatment with gamma rays (32 kGy), the content of latanoprost was calculated in the same manner as in Example 1. […]

The mark [1] stands for this setting: sterilized container compared with container with no sterilization treatment.

Take `CC(C)OC(=O)CCC/C=C\C[C@@H]1[C@@H](CC[C@@H](O)CCc2ccccc2)[C@H](O)C[C@@H]1O` [latanoprost, 13,14-dihydro-17-phenyl-18,19,20-trinor-prostaglandin F2α isopropyl ester]: the “content in the eye drop” value (container sterilized with gamma rays, electron rays or ethylene oxide gas) is “did not decrease”. Also, the “content in the eye drop after a predetermined period of time” value under setting [1] was “comparable”.
For the molecule `CC(C)OC(=O)CCC/C=C\C[C@@H]1[C@@H](/C=C/C(F)(F)COc2ccccc2)[C@H](O)C[C@@H]1O` [present compound, 16-phenoxy-15-deoxy-15,15-difluoro-17,18,19,20-tetranor-prostaglandin F2α isopropyl ester], the “content in the eye drop after a predetermined period of time” value was “higher” (ethylene oxide gas sterilized container in comparison with gamma-ray or electron-ray sterilized container) and “comparable” under setting [1].
